According to patent publication US10570184B2, “GLP-1/glucagon receptor co-agonists for medical use” (Novo Nordisk A/S, priority 2014, dated 2020):
Starred links: 1 amine or outer side, 2 acyl side, 3 side chain; linkers in the order of their positions; H or OH if unused. Non-standard residues stand in square brackets, D forms with d. Residues, ends and D or L forms follow the SMILES beside them. Groups on a side chain read outwards from the residue. *: point of attachment. C18 diacid = O=C(O)CCCCCCCCCCCCCCCCC(=O)*; γGlu = O=C(O)[C@H](CCC(=O)[*:2])N[*:1]; Ac4c = NC1(C(=O)O)CCC1; AEEA = NCCOCCOCC(=O)O; Aib = CC(C)(N)C(=O)O

Key:
[1] = target: T1, human GLP-1 receptor (Homo sapiens, UniProt P43220); experiment: Assay (I)(a) GLP-1 receptor activation, CRE luciferase reporter gene assay in BHK cells; type: cell-based; conditions: without presence of serum albumin; read-out: GLP-1R EC50 (pM) [Assay (I)(a)]
T1 construct: expressed in transfected cells; host or cells: membranes of BHK cells (parent BHKTS13), clone FCW467-12A
Method in brief: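 Stable BHK clone expressing human GLP-1 receptor with CRE-driven firefly luciferase, 5×10EE3 cells/well in medium with 2% ovalbumin and 0.2% Pluronic F-68. Compounds at 1×10EE-13 to 1×10EE-6 M final, 3 h at 37° C.; luminescence read, EC50 (pM) from four-parameter fit.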

[2] = Assay (III) ThT fibrillation assay for physical stability; type: physicochemical; conditions: 250 μM in 10 mM HEPES buffer, 37° C., shaking 960 rpm
Method in brief: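 Glucagon derivative at 250 μM in 10 mM HEPES pH 7.5 with 1 μM ThT was incubated at 37 °C under 960 rpm orbital shaking. Fluorescence (ex 444/em 485 nm) was read every 20 min and fitted for lag time (t0−2τ) and kapp (1/τ). Recovery was soluble peptide after centrifugation/filtration, by RP-HPLC, as percent of initial.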

T1 sequence (P43220 24-463): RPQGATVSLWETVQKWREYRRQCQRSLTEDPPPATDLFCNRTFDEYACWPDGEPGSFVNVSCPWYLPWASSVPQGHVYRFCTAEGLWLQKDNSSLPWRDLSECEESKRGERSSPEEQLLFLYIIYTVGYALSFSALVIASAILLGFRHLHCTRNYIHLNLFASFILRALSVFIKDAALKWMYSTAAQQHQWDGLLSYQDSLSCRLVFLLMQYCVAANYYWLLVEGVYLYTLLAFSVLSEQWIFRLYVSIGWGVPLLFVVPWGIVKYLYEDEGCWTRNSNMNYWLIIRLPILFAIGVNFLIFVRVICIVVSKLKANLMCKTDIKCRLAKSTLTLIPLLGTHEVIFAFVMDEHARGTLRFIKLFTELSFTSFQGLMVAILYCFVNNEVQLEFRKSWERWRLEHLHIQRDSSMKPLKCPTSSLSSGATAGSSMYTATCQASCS

EC50 [1]	ThT Assay Lag time (h) [Assay (III), pH 7.5] [2]	Structure (SMILES)
2 pM	–	CC[C@H](C)[C@H](NC(=O)[C@H](CC(C)C)NC(=O)[C@H](Cc1c[nH]c2ccccc12)NC(=O)[C@H](CCC(N)=O)NC(=O)[C@@H](NC(=O)[C@H](Cc1ccccc1)NC(=O)[C@H](CC(=O)O)NC(=O)[C@H](CCC(N)=O)NC(=O)[C@H](C)NC(=O)[C@H](CCCNC(=N)N)NC(=O)[C@H](CCCNC(=N)N)NC(=O)[C@H](C)NC(=O)[C@H](CC(=O)O)NC(=O)[C@H](CC(C)C)NC(=O)[C@H](Cc1ccc(O)cc1)NC(=O)[C@H](CCCCN)NC(=O)[C@H](CO)NC(=O)[C@H](CC(C)C)NC(=O)[C@H](CC(=O)O)NC(=O)[C@H](CO)NC(=O)[C@@H](NC(=O)[C@H](Cc1ccccc1)NC(=O)[C@@H](NC(=O)CNC(=O)[C@H](CCC(N)=O)NC(=O)C(C)(C)NC(=O)[C@@H](N)Cc1c[nH]cn1)[C@@H](C)O)[C@@H](C)O)C(C)C)C(=O)N[C@@H](CCCCNC(=O)COCCOCCNC(=O)COCCOCCNC(=O)CC[C@H](NC(=O)CC[C@H](NC(=O)CC[C@H](NC(=O)CCCCCCCCCCCCCCCCC(=O)O)C(=O)O)C(=O)O)C(=O)O)C(=O)N[C@H](C(N)=O)[C@@H](C)O [Chem. 7, N^ε28-[2-[2-[2-[[2-[2-[2-[[(4S)-4-carboxy-4-[[(4S)-4-carboxy-4-[[(4S)-4-carboxy-4-(17-carboxyheptadecanoylamino)butanoyl]amino]butanoyl]amino]butanoyl]amino]ethoxy]ethoxy]acetyl]amino]ethoxy]ethoxy]acetyl]-[Aib2,Leu10,Ala16,Ile27,Lys28]-Glucagon amide] (H-H[Aib]QGTFTSDLSKYLDARRAQDFVQWLIK([AEEA-AEEA-γGlu-γGlu-γGlu-C18 diacid])T-NH2; N-terminus assumed)
5 pM	16.0 h	CC[C@H](C)[C@H](NC(=O)[C@H](CC(C)C)NC(=O)[C@H](Cc1c[nH]c2ccccc12)NC(=O)[C@H](CCC(N)=O)NC(=O)[C@@H](NC(=O)[C@H](Cc1ccccc1)NC(=O)[C@H](CCC(=O)O)NC(=O)[C@H](CCCNC(=N)N)NC(=O)[C@H](C)NC(=O)[C@H](CCCNC(=N)N)NC(=O)[C@H](CCCNC(=N)N)NC(=O)[C@H](CO)NC(=O)[C@H](CCC(=O)O)NC(=O)[C@H](CC(C)C)NC(=O)[C@H](Cc1ccc(O)cc1)NC(=O)[C@H](CCCCN)NC(=O)[C@H](CO)NC(=O)[C@H](CC(C)C)NC(=O)[C@H](CC(=O)O)NC(=O)[C@H](CO)NC(=O)[C@@H](NC(=O)[C@H](Cc1ccccc1)NC(=O)[C@@H](NC(=O)CNC(=O)[C@H](CCC(N)=O)NC(=O)C1(NC(=O)[C@@H](N)Cc2c[nH]cn2)CCC1)[C@@H](C)O)[C@@H](C)O)C(C)C)C(=O)N[C@@H](CCCCNC(=O)CNC(=O)[C@H](CO)NC(=O)[C@H](CCC(=O)O)NC(=O)CNC(=O)[C@H](CO)NC(=O)CC[C@H](NC(=O)CC[C@H](NC(=O)CCCCCCCCCCCCCCCCC(=O)O)C(=O)O)C(=O)O)C(=O)N[C@H](C(N)=O)[C@@H](C)O [Chem. 16, N^ε28-[2-[[(2S)-2-[[(2S)-4-carboxy-2-[[2-[[(2S)-2-[[(4S)-4-carboxy-4-[[(4S)-4-carboxy-4-(17-carboxyheptadecanoylamino)butanoyl]amino]butanoyl]amino]-3-hydroxypropanoyl]amino]acetyl]amino]butanoyl]amino]-3-hydroxypropanoyl]amino]acetyl]-[Acb2,Leu10,Glu15,Arg20,Glu21,Ile27,Lys28]-Glucagon amide] (HELM PEPTIDE1{H.[O=C(C1(N[*:1])CCC1)[*:2]].Q.G.T.F.T.S.D.L.S.K.Y.L.E.S.R.R.A.R.E.F.V.Q.W.L.I.K.T.[am]}|PEPTIDE2{[O=C(O)CCCCCCCCCCCCCCCCC(=O)[*:2]].[gGlu].[gGlu].S.G.E.S.G}$PEPTIDE1,PEPTIDE2,28:R3-8:R2$$$V2.0)
4 pM	3.7 h	CC[C@H](C)[C@H](NC(=O)[C@H](CC(C)C)NC(=O)[C@H](Cc1c[nH]c2ccccc12)NC(=O)[C@H](CCC(N)=O)NC(=O)[C@@H](NC(=O)[C@H](Cc1ccccc1)NC(=O)[C@H](CC(=O)O)NC(=O)[C@H](CCCNC(=N)N)NC(=O)[C@H](C)NC(=O)[C@H](CCCNC(=N)N)NC(=O)[C@H](CCCNC(=N)N)NC(=O)[C@H](CO)NC(=O)[C@H](CCC(=O)O)NC(=O)[C@H](CC(C)C)NC(=O)[C@H](Cc1ccc(O)cc1)NC(=O)[C@H](CCCNC(=N)N)NC(=O)[C@H](CO)NC(=O)[C@H](Cc1ccc(O)cc1)NC(=O)[C@H](CC(=O)O)NC(=O)[C@H](CO)NC(=O)[C@@H](NC(=O)[C@H](Cc1ccccc1)NC(=O)[C@@H](NC(=O)CNC(=O)[C@H](CCC(N)=O)NC(=O)C1(NC(=O)[C@@H](N)Cc2c[nH]cn2)CCC1)[C@@H](C)O)[C@@H](C)O)C(C)C)C(=O)N[C@@H](CCCCNC(=O)CC[C@H](NC(=O)COCCOCCNC(=O)CC[C@H](NC(=O)COCCOCCNC(=O)CC[C@H](NC(=O)COCCOCCNC(=O)CC[C@H](NC(=O)CC[C@H](NC(=O)CCCCCCCCCCCCCCCCC(=O)O)C(=O)O)C(=O)O)C(=O)O)C(=O)O)C(=O)O)C(=O)N[C@H](C(N)=O)[C@@H](C)O [Chem. 36, N^ε28-[(4S)-4-carboxy-4-[[2-[2-[2-[[(4S)-4-carboxy-4-[[2-[2-[2-[[(4S)-4-carboxy-4-[[2-[2-[2-[[(4S)-4-carboxy-4-[[(4S)-4-carboxy-4-(17-carboxyheptadecanoylamino)butanoyl]amino]butanoyl]amino]ethoxy]ethoxy]acetyl]amino]butanoyl]amino]ethoxy]ethoxy]acetyl]amino]butanoyl]amino]ethoxy]ethoxy]acetyl]amino]butanoyl]-[Acb2,Arg12,Glu15,Arg20,Ile27,Lys28]-Glucagon amide] (H-H[Ac4c]QGTFTSDYSRYLESRRARDFVQWLIK([γGlu-AEEA-γGlu-AEEA-γGlu-AEEA-γGlu-γGlu-C18 diacid])T-NH2; N-terminus assumed)
3 pM	–	CC[C@H](C)[C@H](NC(=O)[C@H](CC(C)C)NC(=O)[C@H](Cc1c[nH]c2ccccc12)NC(=O)[C@H](CCCCNC(=O)COCCOCCNC(=O)COCCOCCNC(=O)CC[C@H](NC(=O)CC[C@H](NC(=O)CC[C@H](NC(=O)CCCCCCCCCCCCCCCCC(=O)O)C(=O)O)C(=O)O)C(=O)O)NC(=O)[C@@H](NC(=O)[C@H](Cc1ccccc1)NC(=O)[C@H](CCC(=O)O)NC(=O)[C@H](CCCNC(=N)N)NC(=O)[C@H](C)NC(=O)[C@H](CCCNC(=N)N)NC(=O)[C@H](CCCNC(=N)N)NC(=O)[C@H](C)NC(=O)[C@H](CC(=O)O)NC(=O)[C@H](CC(C)C)NC(=O)[C@H](Cc1ccc(O)cc1)NC(=O)[C@H](CCCCN)NC(=O)[C@H](CO)NC(=O)[C@H](Cc1ccc(O)cc1)NC(=O)[C@H](CC(=O)O)NC(=O)[C@H](CO)NC(=O)[C@@H](NC(=O)[C@H](Cc1ccccc1)NC(=O)[C@@H](NC(=O)CNC(=O)[C@H](CCC(N)=O)NC(=O)C(C)(C)NC(=O)[C@@H](N)Cc1c[nH]cn1)[C@@H](C)O)[C@@H](C)O)C(C)C)C(=O)N[C@@H](CO)C(=O)N[C@H](C(N)=O)[C@@H](C)O [Chem. 4, N^ε24-[2-[2-[2-[[2-[2-[2-[[(4S)-4-carboxy-4-[[(4S)-4-carboxy-4-[[(4S)-4-carboxy-4-(17-carboxyheptadecanoylamino)butanoyl]amino]butanoyl]amino]butanoyl]amino]ethoxy]ethoxy]acetyl]amino]ethoxy]ethoxy]acetyl]-[Aib2,Ala16,Arg20,Glu21,Lys24,Ile27,Ser28]-Glucagon amide] (H-H[Aib]QGTFTSDYSKYLDARRAREFVK([AEEA-AEEA-γGlu-γGlu-γGlu-C18 diacid])WLIST-NH2; N-terminus assumed)
